Results on one compound are retold here after paper PMC12066474, “Ex vivo quantification of intracellular pH in Drosophila Malpighian tubule reveals basolateral HCO3 ^−/oxalate exchange through a novel oxalate transporter “Neat”” (Frontiers in Physiology, 2025).

The target in the test is T1, Neat (CG5002) (Drosophila melanogaster, UniProt Q7K4I4).
T1 construct: coding region in pGEMHE, cRNA expressed in Xenopus laevis oocytes
T1 sequence (Q7K4I4 1-595): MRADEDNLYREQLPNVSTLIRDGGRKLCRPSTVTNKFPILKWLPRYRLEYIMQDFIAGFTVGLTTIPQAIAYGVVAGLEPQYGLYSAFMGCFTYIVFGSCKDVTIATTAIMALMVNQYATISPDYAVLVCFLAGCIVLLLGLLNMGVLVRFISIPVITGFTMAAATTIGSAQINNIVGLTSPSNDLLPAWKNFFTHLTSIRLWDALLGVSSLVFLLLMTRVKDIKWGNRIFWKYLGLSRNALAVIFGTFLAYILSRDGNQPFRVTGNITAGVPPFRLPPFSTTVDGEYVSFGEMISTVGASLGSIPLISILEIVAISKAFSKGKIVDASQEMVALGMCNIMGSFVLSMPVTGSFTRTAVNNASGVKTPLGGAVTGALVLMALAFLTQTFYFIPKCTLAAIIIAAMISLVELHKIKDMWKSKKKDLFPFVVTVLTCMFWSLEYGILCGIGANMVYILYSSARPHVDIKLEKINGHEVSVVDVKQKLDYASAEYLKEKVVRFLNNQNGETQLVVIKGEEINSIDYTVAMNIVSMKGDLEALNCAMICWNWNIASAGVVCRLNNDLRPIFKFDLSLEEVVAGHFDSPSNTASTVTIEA
The class given is cell-based. Conditions: 5% CO2/33 mM HCO3−, pH 7.5.

`O=C(O)O` [HCO3 ^−]: the “intracellular pH microelectrode in Xenopus oocytes” value is recorded as “Neat demonstrated electroneutral HCO3 ^− influx in the presence of HCO3 ^−/CO2 buffered saline”.
